Data from patent US5318970A, “Isoxazole compounds, pharmaceutically acceptable salts thereof and medical uses thereof” (Taiho Pharmaceutical Co., Ltd., priority 1990, dated 1994).

How the values were obtained:
Cyclooxygenase = Cyclooxygenase inhibitory effect (14C-arachidonic acid to prostaglandin E2, seminal vesicular gland microsomes); type: biochemical; conditions: prostaglandin E2 by thin layer chromatography
Method: (1) Cyclooxygenase Inhibitory effect
This assay was carried out by the method described in Russell J. Taylor et al., Biochem. Pharmacol., 25, 2479-2484 (1976).
^14 C-arachidonic acid was reacted with seminal vesicular gland microsomes and the test drugs at various concentrations over a predetermined period of time and the obtained prostaglandin E2 was separated by thin layer chromatography. The radioactivity of prostaglandin E2 was determined by liquid scintillation counter. The IC50 values were calculated by the comparison with the radioactivity of the control.

5-Lipoxygenase = target: T1, 5-Lipoxygenase (Cavia porcellus, UniProt A0A286X958); assay: 5-Lipoxygenase inhibitory effect (14C-arachidonic acid to 5-hydroxyeicosatetraenoic acid, cytosol of polymorphonuclear leukocytes); type: biochemical; conditions: guinea pig polymorphonuclear leukocyte cytosol; 5-hydroxyeicosatetraenoic acid by thin layer chromatography
T1 construct: the polymorphonuclear leukocytes were collected and the cytosol fraction was obtained as an enzyme source; endogenous in cells; host or cells: guinea pig peritoneal polymorphonuclear leukocytes (casein-elicited), cytosol fraction
T1 sequence (A0A286X958 1-674): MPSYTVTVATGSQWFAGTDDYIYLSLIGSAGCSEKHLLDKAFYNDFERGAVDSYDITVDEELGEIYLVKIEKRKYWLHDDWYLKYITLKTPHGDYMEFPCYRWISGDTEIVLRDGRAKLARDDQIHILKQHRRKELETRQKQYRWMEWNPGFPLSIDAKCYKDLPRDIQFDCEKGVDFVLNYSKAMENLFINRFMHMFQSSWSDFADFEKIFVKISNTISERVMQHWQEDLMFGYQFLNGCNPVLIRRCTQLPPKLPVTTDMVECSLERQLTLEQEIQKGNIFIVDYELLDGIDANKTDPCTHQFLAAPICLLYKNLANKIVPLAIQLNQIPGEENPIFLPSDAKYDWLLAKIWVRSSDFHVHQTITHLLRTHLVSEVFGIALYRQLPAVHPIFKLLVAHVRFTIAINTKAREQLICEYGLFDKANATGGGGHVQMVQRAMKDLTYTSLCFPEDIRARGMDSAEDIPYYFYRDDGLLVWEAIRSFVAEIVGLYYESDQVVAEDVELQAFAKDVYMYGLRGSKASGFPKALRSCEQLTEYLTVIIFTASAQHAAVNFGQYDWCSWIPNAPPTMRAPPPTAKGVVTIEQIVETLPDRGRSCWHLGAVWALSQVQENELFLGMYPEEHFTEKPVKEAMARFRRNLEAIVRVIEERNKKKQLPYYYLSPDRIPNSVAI
Method: (2) 5-Lipoxygenase inhibitory effect
The assay was carried out by the method described in Kenkichi Ochi et al., J. Biol. Chem., 258, 5754-5758 (1983).
Casein was injected into the abdominal cavity of a guinea pig, and the polymorphonuclear leukocytes were collected and the cytosol fraction was obtained as an enzyme source. ^14 C-arachidonic acid was reacted with the enzyme and the test drugs at various concentrations over a predetermined period of time. The obtained 5-hydroxyeicosatetraenoic acid was separated by thin layer chromatography and the radioactivity was determined. The IC50 values were calculated by the comparison with the radioactivity of the control.

| Compound | IC50 (Cyclooxygenase) | IC50 (5-Lipoxygenase) |
| --- | --- | --- |
| COc1ccc(-c2noc(CC(=O)NCCN3CCN(CCCCCCCCCCO)CC3)c2-c2ccc(OC)cc2)cc1 [Compound 6] | 121 nM | 1800 nM |
| COc1ccc(-c2noc(CC(=O)NC(CN3CCN(CCCCCCCCCCO)CC3)c3ccccc3)c2-c2ccc(OC)cc2)cc1 (stereo not drawn) [Compound 7] | 146 nM | 2500 nM |
| CCCCCCCCCCN1CCN(C(=O)CNC(=O)Cc2onc(-c3ccc(OC)cc3)c2-c2ccc(OC)cc2)CC1 [Compound 8] | 66 nM | 5900 nM |
